Several values for one entry are separate records, joined by “and”; a condition that tells them apart may be missing. Equal entries are not always repeated. Where two headings read alike, the source gives them in different places. Positions of bridges follow the written chain, without caps; N, C: chain ends. Residues, ends and D or L forms follow the SMILES beside them.
Assays:
TE-671 cells, TMEM233 KO = format: cell-based; conditions: ExTxA 1 µM
NaV1.7/TMEM233 = NaV1.7/TMEM233 (Homo sapiens, UniProt B4DJY2+Q15858); format: cell-based
Experimental: HEK293-NaV1.7 cells were transfected with TMEM233, CRELD1, LMAN2L, MMGT1, RNF121 and STT3B and co-transfected with five plasmids coding for the Glycosylphosphatidylinositol (GPI) complex (GPAA1, PIGK, PIGS, PIGU, PIGT) using Lipofectamine 2000. After 24 h, transfected cells were harvested and plated at a density of 10,000–15,000 cells per well on black-walled 384-well imaging plates. Plated cells were cultured for a further 24 h at 37 °C and 5% CO2. FLIPR (Fluorescent Imaging Plate Reader) Red membrane potential assay dye (Molecular Devices, California, USA) was diluted in physiological salt solution according to the manufacturer’s instructions (PSS, in mM: NaCl 140, glucose 11.5, HEPES 10, KCl 5.9, MgCl2 1.4, NaH2PO4 1.2, NaHCO3 5, CaCl2 1.8, pH 7.4). Growth medium was removed from the plate and replaced with 20 µL of FLIPR Red membrane potential assay dye per well and incubated in the dark at 37 °C for 60 min. […] Fluorescence responses to ExTxA were computed as the maximum change in fluorescence over baseline (ΔF/F0) using ScreenWorks (Molecular Devices, Version 5.1.2.94).

[1] = system: NaV1.7Advill knockout mice; test: Nocifensive behaviors after intraplantar injection, NaV1.7Advill mice; format: in vivo, mouse; conditions: i.pl. ExTxA 10 nM
From the text: Tmem233^Cre animals were generated and genotyped as previously described, with a Kozak-Cre-pA cassette replacing the ATG start codon of the murine Tmem233 gene to produce a functional knockout in homozygous animals. NaV1.7^Advill mice lacking functional NaV1.7 in all sensory neurons were generated and genotyped as previously described[33] by crossing Advillin-Cre mice with floxed Scn9a animals in which loxP sites were inserted in introns flanking exons 14 and 15[34],[35]. NaV1.9^−/− mice and NaV1.8^Cre/Cre mice, in which Cre recombinase substitutes the translational start-site of NaV1.8, were generated and sequenced as previously described[34],[36],[37].
(§1) Nocifensive responses to intraplantar administration of ExTxA (5–10 nM) were assessed as previously described. In brief, ExTxA was diluted in sterile saline/0.1% BSA and administered by an intraplantar injection (40 μL) into a single hind paw of Tmem233^Cre/Cre, NaV1.7^Advill and wild-type littermate controls. Pain behaviors, consisting of paw licks or flinches, were counted from video recordings by a blinded investigator for up to 60 min following injection.

hNaV1.6 = test: Persistent current, HEK293-hNaV1.6/β1; format: cell-based, human; conditions: ExTxA 1 µM; individual cells
NaV1.7/TRARG1 = NaV1.7/TRARG1 (Homo sapiens, UniProt Q15858+Q8IXB3); format: cell-based
[2] = NMR of 15N-labelled ExTxA with dodecylphosphocholine micelles; format: binding; conditions: 1H-15N TROSY, 30 µM peptide, 20 mM Tris pH 8, 50 mM NaCl, 10% DPC, 298 K
Experimental: For NMR analysis, lyophilized ^15N-labelled ExTxA was resuspended either in 40% deuterated acetonitrile or buffer containing 20 mM Tris pH 8, 50 mM NaCl, 10% (w/v) dodecylphosphocholine (DPC) and 5% D2O. ^1H-^15N transverse relaxation optimized spectroscopy (TROSY) spectra were acquired for the peptide samples (30 µM) on a Bruker Avance 900 MHz NMR spectrometer equipped with a triple resonance cryogenic probe at 298 K. The spectra were processed using TOPSPIN v4.1.4 software (Bruker, Massachusetts, USA).

wild-type C57BL/6 mice = test: Nocifensive behaviors after intraplantar injection, wild-type mice; format: in vivo, mouse; conditions: wt
Experimental: as §1

hNaV1.1 = test: Persistent current, HEK293-hNaV1.1/β1; format: cell-based, human; conditions: ExTxA 1 µM; individual cells
hNaV1.7 = test: Persistent current, CHO hNaV1.7, no β subunit; format: cell-based, human; conditions: ExTxA 1 µM
[3] = best-fit value, log(agonist) vs. response -- variable slope (four parameters)

Chain of NaV1.7/TRARG1 (Q07699 19-218): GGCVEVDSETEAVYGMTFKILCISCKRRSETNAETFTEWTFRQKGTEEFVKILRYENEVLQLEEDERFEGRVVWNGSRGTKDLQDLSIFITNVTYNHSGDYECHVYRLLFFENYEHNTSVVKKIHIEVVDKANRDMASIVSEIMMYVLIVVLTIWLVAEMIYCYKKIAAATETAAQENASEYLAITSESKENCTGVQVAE
Chain of NaV1.7/TRARG1 (Q15858 whole entry): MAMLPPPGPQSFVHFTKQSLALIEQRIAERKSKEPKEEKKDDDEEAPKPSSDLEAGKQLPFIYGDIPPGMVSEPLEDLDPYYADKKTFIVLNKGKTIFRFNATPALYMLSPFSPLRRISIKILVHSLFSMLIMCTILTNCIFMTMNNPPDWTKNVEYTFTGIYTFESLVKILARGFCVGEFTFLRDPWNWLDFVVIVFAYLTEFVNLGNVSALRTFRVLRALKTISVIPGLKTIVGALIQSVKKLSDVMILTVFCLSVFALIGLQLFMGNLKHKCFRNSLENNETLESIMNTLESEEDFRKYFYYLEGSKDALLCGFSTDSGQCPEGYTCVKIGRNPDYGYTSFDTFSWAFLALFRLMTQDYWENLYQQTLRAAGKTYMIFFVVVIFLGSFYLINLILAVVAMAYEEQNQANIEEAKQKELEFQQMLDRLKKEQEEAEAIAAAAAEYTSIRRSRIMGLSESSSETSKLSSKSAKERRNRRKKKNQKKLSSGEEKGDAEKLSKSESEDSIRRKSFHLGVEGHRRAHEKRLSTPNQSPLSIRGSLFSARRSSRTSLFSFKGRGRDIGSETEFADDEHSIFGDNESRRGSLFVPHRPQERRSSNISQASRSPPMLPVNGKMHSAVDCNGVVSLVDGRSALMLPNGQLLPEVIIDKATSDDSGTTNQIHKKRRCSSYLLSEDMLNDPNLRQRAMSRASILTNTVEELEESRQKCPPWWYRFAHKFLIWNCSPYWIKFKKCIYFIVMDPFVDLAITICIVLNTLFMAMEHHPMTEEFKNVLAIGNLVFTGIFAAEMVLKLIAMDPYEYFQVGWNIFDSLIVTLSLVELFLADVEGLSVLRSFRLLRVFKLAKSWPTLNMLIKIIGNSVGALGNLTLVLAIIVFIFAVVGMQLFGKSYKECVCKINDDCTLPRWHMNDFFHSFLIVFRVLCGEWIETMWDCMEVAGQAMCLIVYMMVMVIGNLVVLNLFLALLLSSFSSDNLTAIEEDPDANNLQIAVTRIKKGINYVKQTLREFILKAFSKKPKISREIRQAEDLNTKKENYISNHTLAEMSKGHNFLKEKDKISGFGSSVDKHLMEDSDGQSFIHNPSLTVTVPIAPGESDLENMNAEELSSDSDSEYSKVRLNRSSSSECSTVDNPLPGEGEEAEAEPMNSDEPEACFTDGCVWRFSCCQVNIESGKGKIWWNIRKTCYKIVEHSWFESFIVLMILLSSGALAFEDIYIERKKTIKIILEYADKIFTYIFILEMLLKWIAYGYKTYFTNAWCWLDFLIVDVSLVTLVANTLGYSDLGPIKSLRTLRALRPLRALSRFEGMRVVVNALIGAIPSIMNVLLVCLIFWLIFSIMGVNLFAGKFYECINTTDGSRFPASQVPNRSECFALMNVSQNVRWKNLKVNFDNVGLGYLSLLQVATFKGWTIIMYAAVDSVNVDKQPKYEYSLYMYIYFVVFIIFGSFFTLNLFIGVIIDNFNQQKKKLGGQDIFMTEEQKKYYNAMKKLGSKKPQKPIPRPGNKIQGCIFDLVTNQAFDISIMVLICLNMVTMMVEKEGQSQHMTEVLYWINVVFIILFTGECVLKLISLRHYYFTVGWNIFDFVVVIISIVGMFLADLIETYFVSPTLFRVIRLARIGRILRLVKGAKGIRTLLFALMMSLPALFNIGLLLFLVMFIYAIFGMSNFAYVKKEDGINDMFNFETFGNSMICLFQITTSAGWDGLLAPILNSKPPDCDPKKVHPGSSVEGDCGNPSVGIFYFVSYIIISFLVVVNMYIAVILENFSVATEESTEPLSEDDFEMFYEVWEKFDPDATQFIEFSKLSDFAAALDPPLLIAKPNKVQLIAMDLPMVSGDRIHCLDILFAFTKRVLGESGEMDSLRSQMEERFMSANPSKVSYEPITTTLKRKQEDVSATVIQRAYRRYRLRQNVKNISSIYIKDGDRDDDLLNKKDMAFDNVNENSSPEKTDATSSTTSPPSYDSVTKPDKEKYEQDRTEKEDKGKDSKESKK
Chain of NaV1.7/TRARG1 (Q8IXB3 whole entry): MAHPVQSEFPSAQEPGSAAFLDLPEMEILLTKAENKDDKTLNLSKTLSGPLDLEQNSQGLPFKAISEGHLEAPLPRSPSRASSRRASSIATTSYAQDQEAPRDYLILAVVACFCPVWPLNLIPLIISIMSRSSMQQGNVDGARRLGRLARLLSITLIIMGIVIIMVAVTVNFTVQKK

CC[C@H](C)[C@@H]1NC(=O)[C@H](CCCNC(=N)N)NC(=O)[C@H](Cc2ccccc2)NC(=O)[C@H](CC(C)C)NC(=O)[C@H](CO)NC(=O)[C@@H]2CSSC[C@@H]3NC(=O)[C@H]([C@@H](C)O)NC(=O)[C@H](CSSC[C@H](NC(=O)[C@H](CCCNC(=N)N)NC(=O)[C@@H]4CCCN4C(=O)[C@@H](N)CC(C)C)C(=O)N[C@@H](CC(=O)O)C(=O)N[C@@H](CO)C(=O)N4CCC[C@H]4C(=O)N[C@@H](Cc4ccccc4)C(=O)N2)NC(=O)[C@H](CCCCN)NC(=O)[C@H](CC(=O)O)NC(=O)CNC(=O)[C@H](CSSC[C@@H](C(=O)N[C@H](C(=O)N2CCC[C@H]2C(=O)N[C@@H](CC(=O)O)C(=O)N[C@H](C(=O)O)C(C)C)C(C)C)NC(=O)[C@H](CC(C)C)NC(=O)CNC(=O)[C@H](Cc2ccccc2)NC(=O)[C@H]([C@@H](C)CC)NC(=O)[C@@H]2CCCN2C(=O)[C@H](CC(C)C)NC(=O)[C@@H]2CCCN2C(=O)[C@H](C(C)C)NC3=O)NC(=O)[C@H](CC(C)C)NC(=O)CNC1=O [ExTxA, excelsatoxin A] (H-LPRCDSPFCSLFRIGLCGDKCTCVPLPIFGLCVPDV-OH; disulfide 4-21, 9-23, 17-32)
Difference between means (B - A), TMEM233-/- minus wildtype (TE-671 cells, TMEM233 KO): -0.7661 ± 0.02026
persistent current (I40 ms/Ipeak) (TE-671 cells, TMEM233 KO; TMEM233-/-, individual cells): 0.1031 and 0.03299 and 0.02248 and 0.06663 and 0.03142 and 0.02781
DF/F (NaV1.7/TMEM233): 0.3009 and 0.2755
ΔF/F in NaV1.7 HEK293 (NaV1.7/TMEM233; ExTxA 1 µM, TMEM233, mean, n = 3): 0.29 ± 0.0075 and 0.2867
DF/F (NaV1.7/TMEM233; ExTxA 1 µM, TMEM233, replicate 3): 0.2837
Bottom (NaV1.7/TMEM233; [3]): 0.07296
HillSlope (NaV1.7/TMEM233; [3]): 1.156
LogEC50 (NaV1.7/TMEM233; [3]): -8.146
Span (NaV1.7/TMEM233; [3]): 0.6962
Top (NaV1.7/TMEM233; [3]): 0.7692
ExTxA-sensitivity of NaV1.7-expressing HEK293 cells (NaV1.7/TMEM233; of all 10 gene hits): only expression of TMEM233 imparted ExTxA-sensitivity to NaV1.7-expressing HEK293 cells
Difference between means (B - A), wildtype minus Scn9a-/- [1]: 279.3 ± 22.82
nocifensive responses in knockout mice [1]: abolished
cumulative flinches (60 min) ([1]; 40 μL, NaV1.7Advill, mean, n = 4): 40.0 ± 6.5 and 40
cumulative flinches (60 min) ([1]; NaV1.7Advill (Scn9a-/-), individual animals): 32 and 43 and 57 and 28
persistent current (I40 ms/Ipeak) (hNaV1.6): -0.07037 and 0.003531 and 0.01691 and 0.001263 and 0.000702 and -0.00068 and -0.03041 and 0.01768
LogEC50 (NaV1.7/TRARG1; Nav1.7/TRARG1, 95% CI -6.511 to -5.182, Fig 4g): -5.623
HillSlope (NaV1.7/TRARG1; Nav1.7/TRARG1, Fig 4g): 0.6926
Top (NaV1.7/TRARG1; Nav1.7/TRARG1, best-fit, constraint Top < 1, Fig 4g): 1
ExTxA-induced currents with TRARG1 (NaV1.7/TRARG1; co-expression with NaV1.7): resulted in ExTxA-induced persistent currents
association with dodecylphosphocholine micelles [2]: associates with dodecylphosphocholine micelles
cumulative flinches (60 min) (wild-type C57BL/6 mice; i.pl. ExTxA 10 nM, 40 μL, mean, n = 4): 319.3 ± 21.9 and 319.3
cumulative flinches (60 min) (wild-type C57BL/6 mice; i.pl. ExTxA 10 nM, individual animals): 318 and 332 and 366 and 261
ExTxA-induced pain behaviours (cumulative paw licks and flinches over 40 min) (wild-type C57BL/6 mice; i.pl. ExTxA 10 nM, mean ± SEM, n = 17): 234.2 ± 27.7
nocifensive behaviors, 0-40 min combined (Fig. 3g) (wild-type C57BL/6 mice; 0-40 min, individual animals, one line each (n = 17)): 186 and 191 and 216 and 226 and 100 and 220 and 228 and 281 and 150 and 168 and 177 and 96 and 381 and 537 and 153
nocifensive behaviors, 0-40 min combined, mean (Fig. 3g) (wild-type C57BL/6 mice; 0-40 min, mean, n = 17): 234.2
persistent current (I40 ms/Ipeak) (hNaV1.1): 0.000881 and 0.001374 and 0.002237 and -0.03938 and -0.00046 and -0.00216 and -0.00201 and 0.01125 and 0.00618 and -0.00021 and -0.01358
CHO cells persistent current (I40 ms) (hNaV1.7; hNaV1.7 alone, mean ± SEM, n = 6): 0.000 ± 0.002 nA
Δ persistent current (I40 ms/Ipeak) in CHO hNaV1.7 (hNaV1.7; no β subunit, mean, n = 12): 0.001 ± 0.004 and 0.0009513
